Experimental data taken from patent US20170224654A1, “PHARMACEUTICAL COMPOSITIONS AND METHODS FOR COUNTERING CHEMOTHERAPY INDUCED CARDIOTOXICITY” (Stem Cell Theranostics, Inc., priority 2016, published 2017).

Experiments:
cardiomyocytes = experiment: Bortezomib-induced cell death; type: cell-based, human; details: 100 μM myricetin
[1] = system: human induced pluripotent stem cell-derived cardiomyocytes (iPSC-CM)
TOPOIIβ mRNA expression = experiment: mRNA expression level in cardiomyocytes; type: cell-based
patient = experiment: Patient treatment examples (echocardiogram / electrocardiogram); type: in vivo, human; details: for QT prolongation (in words): doxorubicin (5 mg/mL) given with the protective agent
Experimental: A patient, with a history of heart disease, is diagnosed with breast cancer. Due to an increased risk for heart failure, the patient is unable to receive the standard treatment regimen of doxorubicin, which is known to induce cardiotoxicity. Instead, the caregiver administers a co-formulation of doxorubicin (10 mg) and vitexin (100 mg). An echocardiogram is performed and blood flow rate is measured to determine if the therapy has a cardiotoxic effect in the patient.
A patient is diagnosed with liver cancer. […] The patient presents with a 20 ms QT prolongation. […] The patient is able to continue receiving treatment over several weeks after which a tissue biopsy is performed to confirm the liver cancer has been eradicated.
A patient is diagnosed with stage II lung cancer, and presents with bradycardia. Due to an increased risk for heart failure, the patient is unable to receive the standard treatment regimen of doxorubicin, which is known to affect cardiac contraction and induce bradycardia. Instead, the caregiver administers a co-formulation of doxorubicin (10 mg) and myricetin (100 mg). An electrocardiogram is used to monitor the patient's heart rate. […] The lung cancer is down-staged to stage 1, and the cancer is successfully removed with surgery.
A patient is diagnosed with stage II lung cancer, and presents with bradycardia. Due to an increased risk for heart failure, the patient is unable to receive the standard treatment regimen of doxorubicin, which is known to affect cardiac contraction and induce bradycardia. Instead, the caregiver administers myricetin (100 mg) 24 hours before administration of doxorubicin (10 mg). An electrocardiogram is used to monitor the patient's heart rate. […] The lung cancer is down-staged to stage 1, and the cancer is successfully removed with surgery.

[2] = system: Human iPSC-derived cardiomyocytes; experiment: Mitochondrial toxicity imaging (TMRM) after doxorubicin, 2 days; type: cell-based; details: 1.25 μM doxorubicin + 79 μM myricetin vs 1.25 μM doxorubicin alone
Experimental: Following treatment, the samples were incubated with a tetramethylrhodamine methyl ester (TMRM) dye to indicate mitochondrial health, and Hoechst 33342 to identify cell nuclei. Cells were imaged using the INCell Analyzer2200.

[3] = system: Human iPSC-derived cardiomyocytes; experiment: DOX-induced DNA double strand break (γH2AX immunostaining); type: cell-based; details: DOX 0.5 μM plus 100 μM agent, 48 hours
TOPOIIβ = biological target: T1, TOPOIIβ (Homo sapiens, UniProt Q02880); experiment: kDNA decatenation assay; type: biochemical; details: 37° C., 30 min, n=3; read-out: IC50 of TOPOIIβ enzyme activity
T1 construct: purchased Inspiralis
T1 sequence (Q02880 whole entry): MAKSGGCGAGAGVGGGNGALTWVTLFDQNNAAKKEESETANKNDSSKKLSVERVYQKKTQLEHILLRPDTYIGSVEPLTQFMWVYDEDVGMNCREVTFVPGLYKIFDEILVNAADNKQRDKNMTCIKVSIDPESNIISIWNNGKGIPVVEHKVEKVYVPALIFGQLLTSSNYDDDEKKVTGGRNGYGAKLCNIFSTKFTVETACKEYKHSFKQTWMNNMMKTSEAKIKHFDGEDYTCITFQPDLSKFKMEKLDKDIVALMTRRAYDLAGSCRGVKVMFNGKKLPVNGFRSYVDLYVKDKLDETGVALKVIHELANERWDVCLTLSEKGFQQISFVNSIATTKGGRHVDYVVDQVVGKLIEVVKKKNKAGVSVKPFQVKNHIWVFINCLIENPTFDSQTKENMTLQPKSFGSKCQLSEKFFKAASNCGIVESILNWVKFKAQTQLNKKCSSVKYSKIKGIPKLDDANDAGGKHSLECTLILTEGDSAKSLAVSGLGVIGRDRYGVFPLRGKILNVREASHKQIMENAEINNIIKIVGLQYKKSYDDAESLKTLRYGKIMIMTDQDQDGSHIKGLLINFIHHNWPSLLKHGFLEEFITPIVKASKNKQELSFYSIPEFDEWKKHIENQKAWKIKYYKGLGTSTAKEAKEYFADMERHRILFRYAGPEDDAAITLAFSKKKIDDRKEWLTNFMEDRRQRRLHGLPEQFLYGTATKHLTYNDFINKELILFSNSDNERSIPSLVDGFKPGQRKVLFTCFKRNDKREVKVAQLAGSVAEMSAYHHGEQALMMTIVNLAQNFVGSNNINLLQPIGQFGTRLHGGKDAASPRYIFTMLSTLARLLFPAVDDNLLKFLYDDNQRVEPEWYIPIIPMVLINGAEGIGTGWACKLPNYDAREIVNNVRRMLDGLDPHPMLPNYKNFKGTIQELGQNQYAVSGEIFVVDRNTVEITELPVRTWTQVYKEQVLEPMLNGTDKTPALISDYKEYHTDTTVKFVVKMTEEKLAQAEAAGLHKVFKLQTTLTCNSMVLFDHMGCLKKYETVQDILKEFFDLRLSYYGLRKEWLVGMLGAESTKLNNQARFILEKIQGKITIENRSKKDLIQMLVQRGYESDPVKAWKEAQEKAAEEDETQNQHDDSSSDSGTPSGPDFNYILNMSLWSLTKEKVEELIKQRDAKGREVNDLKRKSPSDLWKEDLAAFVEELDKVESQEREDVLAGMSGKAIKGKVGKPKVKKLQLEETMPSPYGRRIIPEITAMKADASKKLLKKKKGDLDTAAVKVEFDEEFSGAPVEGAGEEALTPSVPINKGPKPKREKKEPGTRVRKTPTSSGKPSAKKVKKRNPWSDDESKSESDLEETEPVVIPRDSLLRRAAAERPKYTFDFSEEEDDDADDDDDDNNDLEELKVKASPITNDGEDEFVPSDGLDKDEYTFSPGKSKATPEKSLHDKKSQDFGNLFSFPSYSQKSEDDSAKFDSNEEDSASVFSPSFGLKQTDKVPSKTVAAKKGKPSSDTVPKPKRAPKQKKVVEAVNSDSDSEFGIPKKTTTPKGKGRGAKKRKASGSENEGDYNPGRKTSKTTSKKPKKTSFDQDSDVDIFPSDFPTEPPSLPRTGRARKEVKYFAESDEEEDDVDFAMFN

[4] = system: sorafenib treated cardiomyocytes; experiment: Sorafenib-induced contractile dysfunction; type: cell-based, human; details: 5 μM sorafenib
[5] = system: Human iPSC-derived cardiomyocytes; experiment: DOX-induced contractility dysfunction (Pulse videos), 48 hours; type: cell-based
[6] = system: topoisomerase IIβ protein in human iPSC-derived cardiomyocytes; experiment: TOPOIIβ protein level (immunostaining), 24 hours; type: cell-based; details: 100 μM
Experimental: To further distinguish molecular mechanisms of MYR from those of DEX and also to determine whether the inhibitory effects of MYR on TOPOII observed in the decatenation assays above is due to degradation of TOPOII proteins, human iPSC-derived cardiomyocytes were treated with DMSO, DEX (100 μM), or MYR (100 μM) for 24 hours, and immunostained with antibody against topoisomerase IIβ (BD Biosciences).
Cells were imaged using INCell Analyzer2200 (GE) and […] protein levels were quantified. Student T-Test (unpaired, two-tailed) was used to determine the significance of the difference.

TOPOIIα mRNA expression = experiment: mRNA expression level in cardiomyocytes; type: cell-based
in vitro = details: human
[7] = system: induced pluripotent stem cell-derived cardiomyocytes; experiment: Acute toxicity on electrophysiology (MEA beat period, field potential duration); type: cell-based; details: for beat period or field potential duration, as compared to control samples: lower drug concentration, at least 20 minutes
Experimental: Samples were either mock-treated with 0.1% DMSO, or treated with increasing concentrations of the indicated drug for at least 20 minutes. Cardiomyocytes were treated with the hERG potassium channel blocker E4031 as a control. Following treatment, the beat period and field potential duration (FPD) were measured in each sample using the MEA.

[8] = system: MDA-MB-231 breast cancer cells; experiment: Cell viability with doxorubicin (CellTiter-Glo); type: cell-based; details: co-treated with increasing concentrations of doxorubicin, 72 hours
A549 cells (lung cancer) = experiment: Cell viability with doxorubicin (CellTiter-Glo); type: cell-based; details: co-treated with increasing concentrations of doxorubicin, 72 hours
Experimental: A549 cells (lung cancer) were cultured for 1 day before performing experiments. […] XLFit was used for curve fitting.

[9] = system: induced pluripotent stem cell-derived cardiomyocytes; experiment: Long term toxicity on electrophysiology (active electrodes, MEA); type: cell-based; details: for number of active electrodes relative to the mock-treated sample (in words): various concentrations, at least 5 days
Experimental: Samples were either mock-treated with 0.1% DMSO, or treated with various concentrations of the indicated drug. Following treatment, the percentage of active electrodes in each sample was measured for at least 5 days. Percentage of active electrodes was quantified and graphed in a time course.

TOPOIIα = biological target: T2, TOPOIIα (Homo sapiens, UniProt P11388); experiment: kDNA decatenation assay; type: biochemical; details: 37° C., 30 min, n=3; read-out: IC50 of TOPOIIα enzyme activity
T2 construct: purchased Inspiralis
T2 sequence (P11388 whole entry): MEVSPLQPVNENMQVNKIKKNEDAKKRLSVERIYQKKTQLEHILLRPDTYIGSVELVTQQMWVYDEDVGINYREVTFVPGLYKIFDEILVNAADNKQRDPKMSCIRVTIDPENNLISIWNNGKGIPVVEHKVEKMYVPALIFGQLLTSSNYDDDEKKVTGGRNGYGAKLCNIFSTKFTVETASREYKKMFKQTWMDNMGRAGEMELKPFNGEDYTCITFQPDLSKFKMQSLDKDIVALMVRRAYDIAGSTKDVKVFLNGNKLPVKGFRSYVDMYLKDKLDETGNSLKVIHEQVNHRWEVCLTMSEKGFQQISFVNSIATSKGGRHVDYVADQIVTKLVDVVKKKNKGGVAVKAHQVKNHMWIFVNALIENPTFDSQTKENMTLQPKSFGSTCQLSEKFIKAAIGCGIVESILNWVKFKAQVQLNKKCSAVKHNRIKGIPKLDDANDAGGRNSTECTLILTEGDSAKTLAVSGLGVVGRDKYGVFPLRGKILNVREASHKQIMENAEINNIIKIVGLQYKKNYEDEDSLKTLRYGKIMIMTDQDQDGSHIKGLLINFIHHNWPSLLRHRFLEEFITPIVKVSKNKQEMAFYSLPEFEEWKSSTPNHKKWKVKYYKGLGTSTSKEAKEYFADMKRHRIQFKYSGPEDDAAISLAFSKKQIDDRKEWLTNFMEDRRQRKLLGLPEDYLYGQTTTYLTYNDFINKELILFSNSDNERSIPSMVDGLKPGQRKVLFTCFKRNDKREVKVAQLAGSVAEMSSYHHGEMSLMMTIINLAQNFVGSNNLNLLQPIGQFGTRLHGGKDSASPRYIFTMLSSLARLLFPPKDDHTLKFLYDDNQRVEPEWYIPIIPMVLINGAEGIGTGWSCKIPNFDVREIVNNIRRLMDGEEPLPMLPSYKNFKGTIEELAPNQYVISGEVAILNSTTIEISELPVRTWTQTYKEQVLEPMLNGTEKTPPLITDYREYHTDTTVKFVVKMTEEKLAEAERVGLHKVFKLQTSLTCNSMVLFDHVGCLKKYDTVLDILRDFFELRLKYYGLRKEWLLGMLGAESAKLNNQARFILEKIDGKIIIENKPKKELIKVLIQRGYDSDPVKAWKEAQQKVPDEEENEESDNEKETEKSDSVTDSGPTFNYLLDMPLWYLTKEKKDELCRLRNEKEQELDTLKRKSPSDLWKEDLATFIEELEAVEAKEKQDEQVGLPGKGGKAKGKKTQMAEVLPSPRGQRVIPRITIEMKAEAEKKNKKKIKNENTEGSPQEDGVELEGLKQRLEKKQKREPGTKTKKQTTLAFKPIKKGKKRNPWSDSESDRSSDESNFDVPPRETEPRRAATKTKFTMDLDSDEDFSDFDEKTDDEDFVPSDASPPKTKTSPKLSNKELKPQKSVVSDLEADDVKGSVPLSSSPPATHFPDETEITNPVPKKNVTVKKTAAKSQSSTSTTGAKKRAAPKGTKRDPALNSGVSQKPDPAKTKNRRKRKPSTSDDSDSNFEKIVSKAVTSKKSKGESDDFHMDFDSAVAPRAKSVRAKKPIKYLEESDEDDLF

[10] = system: human induced pluripotent stem cell-derived cardiomyocytes; experiment: Long-term mitochondrial health (TMRM), 7 days; type: cell-based; details: 1 μM doxorubicin alone or with dexrazoxane or vitexin
Experimental: Following treatment, the samples were incubated with a tetramethylrhodamine methyl ester (TMRM) dye to indicate mitochondrial health. […] Representative images are presented for each sample, wherein loss of TMRM signal represents mitochondrial toxicity.

C57BL/6 mice = experiment: Acute anthracycline-induced cardiotoxicity model, echocardiography; type: in vivo; details: Doxorubicin 20 mg/kg single intraperitoneal injection, day 5
Source text: An acute anthracycline-induced cardiotoxicity model was established in 9-10 week old C57BL/6 mice obtained from The Jackson Laboratory. […] General health of the animals was monitored on a daily basis throughout the course of the study. […] Left ventricular (LV) M-mode images were obtained in the two-dimensional short axis view close to the papillary muscles. Tracings of endocardial tissue during systole and diastole were made off line.

[11] = system: human induced pluripotent stem cell-derived cardiomyocytes; experiment: Electrophysiological activity with doxorubicin (active electrodes, MEA); type: cell-based; details: 1 μM doxorubicin, in the absence of vitexin
Experimental: Samples were either mock-treated with 0.1% DMSO, treated with 1 μM doxorubicin, or co-treated with 1 μM doxorubicin and various concentrations of vitexin (e.g., 11.6 μM, 37 μM, or 116 μM). Following treatment, the percentage of active electrodes in each sample was measured for 72 hours. Percentage of active electrodes was quantified and graphed in a time course (FIG. 28A). The average number of active electrodes per well was quantified and graphed at 30 hours after the treatment (FIG. 28B, n=6, standard deviation is shown as error bars).

[12] = agent alone, DOX at 24 and 48 hours

O=c1c(O)c(-c2cc(O)c(O)c(O)c2)oc2cc(O)cc(O)c12 [Compound 1, 3,5,7,3′,4′,5′-hexahydroxyflavone]
rescue of bortezomib-induced cardiotoxicity (cardiomyocytes): rescued bortezomib-induced cardiotoxicity | number of total cells, as compared to mock-treated control [1]: no significant difference | TOPOIIβ mRNA expression (TOPOIIβ mRNA expression; DOX plus myricetin): restored to a level close to normal | TOPOIIβ mRNA expression (TOPOIIβ mRNA expression; [12]): did not have any effect | QT prolongation (in words) (patient): no signs of QT prolongation | cardiac dysfunction in the patient (patient; protective agent 100 mg co-formulated with, or 24 hours before, doxorubicin 10 mg): no indication of cardiac dysfunction | TMRM signal (protection against doxorubicin-induced mitochondrial toxicity) [2]: greater TMRM signal | protection against DOX-induced DNA double strand break (γH2AX-positive cells) [3]: significant protection | IC50 (TOPOIIβ): 2.07 µM | correction of cardiac dysfunction [4]: more than 80% | correction of DOX-induced contractile dysfunction (beating, duration, peak height) ([5]; DOX 0.5 μM plus MYR 100 μM, compared to DEX 100 μM): significantly corrected | topoisomerase IIβ protein levels [6]: no effect | TOPOIIα mRNA expression (TOPOIIα mRNA expression; DOX plus myricetin): further repressed

CC(=O)[C@]1(O)Cc2c(O)c3c(c(O)c2[C@@H](O[C@H]2C[C@H](N)[C@H](O)[C@H](C)O2)C1)C(=O)c1ccccc1C3=O [Idarubicin, idarubicin]
CC50 at 72 h (in vitro): 0.59 µM

CC(=O)N[C@@H](CS)C(=O)O [N-acetyl cysteine]
beat period or field potential duration, as compared to control samples [7]: no appreciable difference | percentage of cell death vs doxorubicin in the absence of a protective agent [8]: no significant difference | percentage of cell death vs doxorubicin in the absence of a protective agent (A549 cells (lung cancer)): no significant difference

Nc1c(Br)cc(Br)cc1CN[C@H]1CC[C@H](O)CC1 [ambroxol]
beat period or field potential duration, as compared to control samples [7]: no appreciable difference | percentage of cell death vs doxorubicin in the absence of a protective agent [8]: no significant difference | number of active electrodes relative to the mock-treated sample (in words) [9]: no observable decrease | percentage of cell death vs doxorubicin in the absence of a protective agent (A549 cells (lung cancer)): no significant difference

CC(=O)N(O)CCCCCNC(=O)CCC(=O)N(O)CCCCCNC(=O)CCC(=O)N(O)CCCCCN [deferoxamine]
beat period or field potential duration, as compared to control samples [7]: no appreciable difference

C[C@@H](CN1CC(=O)NC(=O)C1)N1CC(=O)NC(=O)C1 [dexrazoxane]
beat period or field potential duration, as compared to control samples [7]: no appreciable difference | percentage of cell death vs doxorubicin in the absence of a protective agent [8]: no significant difference | IC50 (TOPOIIα): 52.7 µM | reduction in the number of active electrodes ([9]; 500 dexrazoxane, about 2 days post-treatment): ~50% | IC50 (TOPOIIβ): 34.4 µM | topoisomerase IIβ protein levels [6]: marked disappearance of TOPOIIβ | percentage of cell death vs doxorubicin in the absence of a protective agent (A549 cells (lung cancer)): no significant difference | mitochondrial toxicity / protection (TMRM-positive cells) [10]: increase in mitochondrial toxicity

COc1cccc2c1C(=O)c1c(O)c3c(c(O)c1C2=O)C[C@@](O)(C(=O)CO)C[C@@H]3O[C@H]1C[C@H](N)[C@H](O)[C@H](C)O1 [doxorubicin, reference compound]
TOPOIIβ mRNA expression (TOPOIIβ mRNA expression; [12]): significantly repressed | cardiomyocyte contraction ([5]; DOX 0.5 μM): induced dysfunction in cardiomyocyte contraction | CC50 at 72 h (in vitro): 0.41 µM | decrease of ejection fraction (EF) (C57BL/6 mice): 19% | decrease of fractional shortening (FS) (C57BL/6 mice): 15% | TOPOIIα mRNA expression (TOPOIIα mRNA expression; DOX alone, over time): slowly repressed | decrease in the number of active electrodes ([11]; 24 hours): ~50% | decrease in the number of active electrodes, relative to time zero ([11]; 30 hours): ~95% | mitochondrial toxicity / protection (TMRM-positive cells) [10]: increase in mitochondrial toxicity

COc1cccc2c1C(=O)c1c(O)c3c(c(O)c1C2=O)C[C@@](O)(C(=O)CO)C[C@@H]3O[C@H]1C[C@H](N)[C@@H](O)[C@H](C)O1 [epirubicin]
CC50 at 72 h (in vitro): 0.49 µM

Nc1ccc(O)c(C(=O)O)c1 [mesalamine]
percentage of cell death vs doxorubicin in the absence of a protective agent [8]: no significant difference | number of active electrodes relative to the mock-treated sample (in words) [9]: no observable decrease | percentage of cell death vs doxorubicin in the absence of a protective agent (A549 cells (lung cancer)): no significant difference

C[C@@H]1O[C@@H](Oc2c(-c3cc(O)c(O)c(O)c3)oc3cc(O)cc(O)c3c2=O)[C@H](O)[C@H](O)[C@H]1O [myricitrin]
QT prolongation (in words) (patient): no signs of QT prolongation

O=C1C[C@@H](c2ccc(O)cc2)Oc2cc(O)cc(O)c21 [naringenin]
acute drug toxicity (beating) ([7]; higher concentrations): beating cessation | beat period or field potential duration, as compared to control samples [7]: no appreciable difference
